Measured values: patent publication US10640497B2, “Microbiocidal oxadiazole derivatives” (SYNGENTA PARTICIPATIONS AG, priority 2015, dated 2020)

Columns and labels:
[1] = test system: Puccinia recondita f. sp. tritici; experiment: Fungicidal activity against Puccinia recondita f. sp. tritici, wheat, leaf disc preventative (brown rust); assay type: in vivo; conditions: foliar, wheat leaf segments, preventative (inoculated 1 day after application), 7-9 days after application, compared to untreated control
Procedure, shortened: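 Wheat cv. Kanzler leaf segments on water agar sprayed with compound (DMSO stock diluted in water), then inoculated with spore suspension 1 day later. Incubated at 19 °C, 75% rh, 12 h light/12 h dark; percent disease control versus untreated scored at 7-9 days after application.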

[2] = test system: Puccinia recondita f. sp. tritici; experiment: Fungicidal activity against Puccinia recondita f. sp. tritici, wheat, leaf disc curative (brown rust); assay type: in vivo; conditions: foliar, 144 h, wheat leaf segments, curative (applied 1 day after inoculation), 6-8 days after application, compared to untreated control
Procedure, shortened: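 Wheat cv. Kanzler leaf segments on agar, inoculated with brown rust spores and kept dark at 19 °C, 75% rh; formulated compound sprayed 1 day after inoculation (curative). Incubated 19 °C, 75% rh, 12 h light/dark; percent disease control vs untreated scored 6–8 days after application.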

[3] = test system: Glomerella lagenarium (Colletotrichum lagenarium); experiment: Fungicidal activity against Glomerella lagenarium (Colletotrichum lagenarium), liquid culture, cucumber, preventative (anthracnose); assay type: cell-based; conditions: Colletotrichum orbiculare, liquid culture (PDB), growth inhibition measured photometrically 3-4 days after application, compared to untreated control
Procedure, shortened: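 Glomerella lagenarium conidia in potato dextrose broth were exposed in 96-well plates to test compound diluted from DMSO stock with 0.025% Tween20 and incubated at 24 °C. Growth inhibition was read photometrically 3–4 days after application, as percent activity relative to untreated check.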

Phakopsora pachyrhizi = experiment: Fungicidal activity against Phakopsora pachyrhizi, soybean, leaf disc preventative (Asian soybean rust); assay type: in vivo; conditions: foliar, 288 h, 12-14 days after application, compared to untreated control
Procedure, shortened: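 Soybean leaf discs on water agar were sprayed with compound diluted in water, then inoculated one day later with a spore suspension on the lower leaf surface. After 24-36 h dark at 20 °C, 75% rh, discs were held at 20 °C, 12 h light/day. Percent disease control versus untreated assessed 12-14 days post-application.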

Structure (SMILES)	melting point [°C]	pest or weed control at 200 ppm [1] [%]	pest or weed control at 200 ppm [2] [%]	inhibition of growth at 20 ppm [3] [%]	pest or weed control at 200 ppm (Phakopsora pachyrhizi) [%]
CC(C)(C)OC(=O)N1CCN(Cc2ccc(-c3noc(C(F)(F)F)n3)cc2)C(=O)C1 [Compound A-30, tert-butyl 3-oxo-4-[[4-[5-(trifluoromethyl)-1,2,4-oxadiazol-3-yl]phenyl]methyl]piperazine-1-carboxylate]	96 to 99	≥ 80	≥ 80	≥ 80	–
O=S1(=O)CCCN1Cc1ccc(-c2noc(C(F)(F)F)n2)cc1 [Compound B-1, 2-[[4-[5-(trifluoromethyl)-1,2,4-oxadiazol-3-yl]phenyl]methyl]-1,2-thiazolidine 1,1-dioxide]	69 to 73	≥ 80	≥ 80	≥ 80	≥ 80
CC(=O)N1CC(=O)N(Cc2ccc(-c3noc(C(F)(F)F)n3)cc2)C(=O)C1 [Compound A-55, 4-acetyl-1-[[4-[5-(trifluoromethyl)-1,2,4-oxadiazol-3-yl]phenyl]methyl]piperazine-2,6-dione]	111 to 114	≥ 80	≥ 80	≥ 80	≥ 80
O=C1CCC(=O)N1Cc1ccc(-c2noc(C(F)(F)F)n2)cc1 [Compound A-51, 1-[[4-[5-(trifluoromethyl)-1,2,4-oxadiazol-3-yl]phenyl]methyl]pyrrolidine-2,5-dione]	113 to 117	≥ 80	≥ 80	≥ 80	≥ 80
O=C1C2C=CC(C2)N1Cc1ccc(-c2noc(C(F)(F)F)n2)cc1 (centres unmarked) [Compound A-9, 3-[[4-[5-(trifluoromethyl)-1,2,4-oxadiazol-3-yl]phenyl]methyl]-3-azabicyclo[2.2.1]hept-5-en-2-one]	50 to 53	≥ 80	≥ 80	≥ 80	≥ 80
CNC(=O)N1CCN(Cc2ccc(-c3noc(C(F)(F)F)n3)cc2)C(=O)C1 [Compound A-33, N-methyl-3-oxo-4-[[4-[5-(trifluoromethyl)-1,2,4-oxadiazol-3-yl]phenyl]methyl]piperazine-1-carboxamide]	114 to 118	≥ 80	≥ 80	≥ 80	≥ 80
CCOC(=O)N1CC(=O)N(Cc2ccc(-c3noc(C(F)(F)F)n3)cc2)C(=O)C1 [Compound A-57, ethyl 3,5-dioxo-4-[[4-[5-(trifluoromethyl)-1,2,4-oxadiazol-3-yl]phenyl]methyl]piperazine-1-carboxylate]	89 to 92	≥ 80	–	≥ 80	≥ 80
O=C1CCON1Cc1c(F)cc(-c2noc(C(F)(F)F)n2)cc1F [Compound A-67, 2-[[2,6-difluoro-4-[5-(trifluoromethyl)-1,2,4-oxadiazol-3-yl]phenyl]methyl]isoxazolidin-3-one]	75 to 80	–	≥ 80	≥ 80	≥ 80
O=C1CNC(=O)N1Cc1ccc(-c2noc(C(F)(F)F)n2)cc1 [Compound A-65, 3-[[4-[5-(trifluoromethyl)-1,2,4-oxadiazol-3-yl]phenyl]methyl]imidazolidine-2,4-dione]	200 to 203	≥ 80	–	≥ 80	≥ 80
COCCNC(=O)N1CCN(Cc2ccc(-c3noc(C(F)(F)F)n3)cc2)C(=O)C1 [Compound A-38, N-(2-methoxyethyl)-3-oxo-4-[[4-[5-(trifluoromethyl)-1,2,4-oxadiazol-3-yl]phenyl]methyl]piperazine-1-carboxamide]	120 to 128	≥ 80	≥ 80	–	≥ 80
O=C1CCCN1c1ccc(-c2noc(C(F)(F)F)n2)cc1 [Compound C-1, 1-[4-[5-(trifluoromethyl)-1,2,4-oxadiazol-3-yl]phenyl]pyrrolidin-2-one]	151 to 153	≥ 80	≥ 80	≥ 80	≥ 80
CNC(=O)N1CC(=O)N(Cc2ccc(-c3noc(C(F)(F)F)n3)cc2)C(=O)C1 [Compound A-58, N-methyl-3,5-dioxo-4-[[4-[5-(trifluoromethyl)-1,2,4-oxadiazol-3-yl]phenyl]methyl]piperazine-1-carboxamide]	148 to 153	≥ 80	–	≥ 80	≥ 80
CN(C)C(=O)N1CC(=O)N(Cc2ccc(-c3noc(C(F)(F)F)n3)cc2)C(=O)C1 [Compound A-56, N,N-dimethyl-3,5-dioxo-4-[[4-[5-(trifluoromethyl)-1,2,4-oxadiazol-3-yl]phenyl]methyl]piperazine-1-carboxamide]	138 to 141	≥ 80	≥ 80	≥ 80	≥ 80
O=C1CCON1c1ccc(-c2noc(C(F)(F)F)n2)cc1 [Compound C-2, 2-[4-[5-(trifluoromethyl)-1,2,4-oxadiazol-3-yl]phenyl]isoxazolidin-3-one]	74 to 77	≥ 80	≥ 80	≥ 80	≥ 80

Second part, led by results:

melting point [°C]	Structure (SMILES)	pest or weed control at 200 ppm [1] [%]	pest or weed control at 200 ppm [2] [%]	inhibition of growth at 20 ppm [3] [%]	pest or weed control at 200 ppm (Phakopsora pachyrhizi) [%]
104 to 108	O=C1CCCC(=O)N1Cc1ccc(-c2noc(C(F)(F)F)n2)cc1 [Compound A-49, 1-[[4-[5-(trifluoromethyl)-1,2,4-oxadiazol-3-yl]phenyl]methyl]piperidine-2,6-dione]	≥ 80	≥ 80	≥ 80	≥ 80
86 to 89	O=C1CCON1Cc1ccc(-c2noc(C(F)(F)F)n2)c(F)c1 [Compound A-68, 2-[[3-fluoro-4-[5-(trifluoromethyl)-1,2,4-oxadiazol-3-yl]phenyl]methyl]isoxazolidin-3-one]	≥ 80	≥ 80	≥ 80	≥ 80
111 to 114	CN(C)C(=O)N1CCN(Cc2ccc(-c3noc(C(F)(F)F)n3)cc2)C(=O)C1 [Compound A-34, N,N-dimethyl-3-oxo-4-[[4-[5-(trifluoromethyl)-1,2,4-oxadiazol-3-yl]phenyl]methyl]piperazine-1-carboxamide]	≥ 80	≥ 80	≥ 80	≥ 80
69 to 73	CC1(C)CCCN(Cc2ccc(-c3noc(C(F)(F)F)n3)c(F)c2)C1=O [Compound A-54, 1-[[3-fluoro-4-[5-(trifluoromethyl)-1,2,4-oxadiazol-3-yl]phenyl]methyl]-3,3-dimethyl-piperidin-2-one]	≥ 80	≥ 80	≥ 80	≥ 80
55 to 60	O=C1CCCN1Cc1ccc(-c2noc(C(F)(F)F)n2)cc1F [Compound A-22, 1-[[2-fluoro-4-[5-(trifluoromethyl)-1,2,4-oxadiazol-3-yl]phenyl]methyl]pyrrolidin-2-one]	≥ 80	≥ 80	≥ 80	≥ 80
155 to 160	CS(=O)(=O)N1CCN(Cc2ccc(-c3noc(C(F)(F)F)n3)cc2)C(=O)C1 [Compound A-41, 4-methylsulfonyl-1-[[4-[5-(trifluoromethyl)-1,2,4-oxadiazol-3-yl]phenyl]methyl]piperazin-2-one]	≥ 80	≥ 80	≥ 80	≥ 80
83 to 88	CC1CCN(Cc2ccc(-c3noc(C(F)(F)F)n3)cc2)C1=O (centres unmarked) [Compound A-7, 3-methyl-1-[[4-[5-(trifluoromethyl)-1,2,4-oxadiazol-3-yl]phenyl]methyl]pyrrolidin-2-one]	≥ 80	≥ 80	≥ 80	≥ 80
134 to 142	CN1CC(=O)N(Cc2ccc(-c3noc(C(F)(F)F)n3)cc2)CC1=O [Compound A-26, 1-methyl-4-[[4-[5-(trifluoromethyl)-1,2,4-oxadiazol-3-yl]phenyl]methyl]piperazine-2,5-dione]	≥ 80	≥ 80	≥ 80	≥ 80
